This passage reports viability, T/C and IC50 results from PubChem BioAssay AID2060607 (Molecular Pharmacology Branch, DTP, NCI, 2025).

Values joined by “and” are separate entries in the source; they are usually repeats but may differ in a detail not shown here. Equal entries are not always repeated.

The subject of the test is 876862-298-R-J1-PDC complex spheroids, viability % test/control. In words: Anticancer human tumor 876862-298-R-J1-PDC patient-derived endometrial carcinoma cell line growth inhibition [CLK]. The settings on record: for viability, T/C: stronger effect = lower value. Put shortly: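 Patient-derived tumor cells grown as complex spheroids with HUVEC endothelial cells and mesenchymal stem cells, treated with drug combinations. Concentrations descend in half-log steps from near clinical Cmax, or from 10 microM if Cmax unknown.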
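Further: spheroids exposed to drugs for 7 days before readout.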
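Wherever viability, T/C is given: 100% = DMSO vehicle control wells.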

With `C=C(F)C(=O)N1CCN(c2nc(OCC3CCCN3C)nc3c2CCN(c2cccc4cccc(Cl)c24)C3)CC1CC#N` (configuration not stated), the viability, T/C runs as follows: (compound 0.0316 µM) 97.6% and 102%; (compound 0.1 µM) 97.9% and 102%; (compound 0.316 µM) 92.6% and 96.1%; (compound 1 µM) 102%; (compound 3.16 µM) 86.3% and 96.5%; (compound 10 µM) 2.35% and 15.5%. Further, the IC50 (curve of compound) is 5.2 µM and 6.13 µM.
